Test results as given in patent US12630523B2, “Isoquinoline derivatives for use as antiviral and antitumour agents” (priority 2021, dated 2026).

Assays:
[1] = system: Retinoblastoma Protein pRb1; assay: Western blot of SiHa (HPV+) cell extracts; assay type: cell-based, human; conditions: 10 μM, 12 and 24 hours
Hela (ATCC CCL-2) = assay: Monolayer SRB assay, Hela; assay type: cell-based; conditions: Homo sapiens, 72 hrs, HPV18
Experimental: Various cell culture cells grown as monolayers are harvested from exponential growing cultures after treatment with various OC compounds at different concentrations. For this depending on the cell line, 10.000 to 30.000 cells were plated in 96-well flat-bottom microtiter plates. After a 24 h recovery period to allow cells to resume exponential growth, supernatants are discarded and 100 μl of culture medium (eight control wells/plate) or culture medium with the test compound are added by a liquid handling robotic system (Microlab® Starlet, Hamilton) and treatment continued for 72 hrs. Compounds are applied at 9 concentrations and eight wells/concentration). At least three independent experiments are performed. For SRB staining, cells are fixed with SRB01 (Tab. 5) for 1 h at 4° C. […] Optical density is assessed using a plate-reader (Sunrise, Tecan©) at 540 nm.
Concentrations required for half maximal response of the compound for cell growth inhibition (EC50) is calculated by non-linear regression (log[conc. of inhibitor] versus response (% T/C)) using the analysis software GraphPad Prism®, Prism 5 for windows, version 5.01 (GraphPad Software Inc., CA).

Cc1ccc(CN2C(=O)c3ccccc3[C@H](C(=O)Nc3cccc(N4CCN(C)CC4)c3)[C@@H]2c2ccc(C(F)(F)F)cc2)cc1 [OC246, N-[3-(4-methylpiperazin-1-yl)phenyl]-2-[(4-methylphenyl)methyl]-1-oxo-3-[4-(trifluoromethyl)phenyl]-1,2,3,4-tetrahydroisoquinoline-4-carboxamide]
Rb protein signals [1]: increase of Rb protein signals | EC50 (Hela (ATCC CCL-2)): 2680 nM
